Series [1] is described as follows: Hydrolysis of ester prodrugs in human plasma solutions (HPLC). As to conditions: for half-life: pH 7.4; for kinetics (order) of hydrolysis in human plasma: 80% human plasma at 37° C., initial concentration about 10^-4 M. On the procedure:
Solutions of various derivatives of this invention in aqueous buffer solutions or 50-80% human plasma solutions (pH 7.4) were kept at 37° C. The initial concentration of the derivatives was in the range 3×10^-4 -10^-5 M. At various times an aliquot of the solutions was withdrawn and analyzed by HPLC for remaining derivative as well as for parent acid. For the plasma solutions the aliquot withdrawn was deproteinized with methanol, ethanol or acetonitrile and after centrifugation, the clear supernatant was injected on HPLC.
An HPLC method was used for the determination of the ester derivatives and their parent acids. In this method a reversed-phase LiChrosorb RP-8 column (250×4 mm) was eluted at ambient temperature with mixtures of methanol and 0.01M acetate buffer pH 5.0, methanol and 0.01M phosphate buffer pH 4.5 or methanol and 0.02M phosphate buffer pH 3.5. the composition of the eluant was adjusted for each compound in order to provide an appropriate retention time and separation of ester and the corresponding acid. The flow-rate was 0.6-1.6 ml/min and the column effluent was monitored spectrophotometrically at an appropriate wavelength. Quantitation of the compounds was done by measurement of the peak heights in relation to those of standards chromatographed under the same conditions.

Series [2] is described as follows: Solubility in water or aqueous solutions. The settings on record: for solubility: water.
Assay in series [3]: not given
This is another data set of the same source.

A short description of series [4]: Oral bioavailability study in rabbits (plasma concentrations). In kind it is in vivo.

≈ marks a conversion by molar mass, not a printed value. Structures can show the parent of a compound that is named as a salt.

In general, half-life refers to the time needed for the level to fall by half in the phase considered. Broadly, the solubility is the dissolved amount per volume that the medium holds.

Turning to `O=C(OCC(=O)N1CCC1)c1ccccc1`, in series [1] (50% plasma), the half-life was 0.83 min. The compound further had a solubility in series [2] of 5400 µg/mL (≈ 24.6 mM).
For `O=C(OCC(=O)N1CCCC1)c1ccccc1`, in that order: 5.7 min and 6300 µg/mL (≈ 27 mM).
Consider `O=C(OCC(=O)N1CCCCC1)c1ccccc1`, for which the “log P (partition coefficient between octanol and water)” value (shortened to “log P”) is 1.95. In series [1] (50% plasma), the half-life came to 2.5 min. In addition, the concentration in solution in series [2] (solubility) came to 780 µg/mL (≈ 3.15 mM).
Consider `O=C(OCC(=O)N1CCCCCC1)c1ccccc1`, for which the half-life in series [1] (50% plasma) came to 1 min. The compound further registered a solubility in series [2] of 750 µg/mL (≈ 2.87 mM).
As to `O=C(OCC(=O)N1CCOCC1)c1ccccc1`, the “log P” value is on record as 0.90. Also, the half-life in series [1] (50% plasma) was determined as 4.9 min. The compound further displayed a solubility in series [2] of 4200 µg/mL (≈ 16.8 mM).
For `O=C(OCC(=O)N1CCC(O)CC1)c1ccccc1`, in series [1] (50% plasma), the half-life is 5.8 min.
For the compound `CC1CCCC(C)N1C(=O)COC(=O)c1ccccc1` (stereo not shown), the half-life in series [1] (50% plasma) came to 0.4 min. Moreover, the solubility in series [2] came out at 150 µg/mL (≈ 0.545 mM).
In the case of `NC(=O)[C@@H]1CCCN1C(=O)COC(=O)c1ccccc1`, the “log P” value was determined as 0.20. For the same compound, the half-life in series [1] (50% plasma) amounted to 2.3 min. In addition, in series [2], the solubility is 1500 µg/mL (≈ 5.43 mM).
In series [1] (50% plasma), `COC(=O)[C@@H]1CCCN1C(=O)COC(=O)c1ccccc1` showed a half-life of 1.9 min.
For the compound `O=C(OCC(=O)N1CCCC1=O)c1ccccc1`, the “log P” value was 1.83. For the same compound, in series [1] (50% plasma), the half-life came out at 18 min. This compound also gave a solubility in series [2] of 490 µg/mL (≈ 1.98 mM).
For `CN1CCN(C(=O)COC(=O)c2ccccc2)CC1`, in series [1] (50% plasma), the half-life worked out at 12.7 min. This compound gave a solubility in series [2] of more than 100000 µg/mL.
As for `CCOC(=O)c1ccc(N)cc1` [4-Aminobenzoic acid ethyl ester, reference compound], the half-life in series [1] (80% plasma) is more than 6000 min.
On to `COC(=O)c1ccc(O)cc1` [4-Hydroxybenzoic acid methyl ester, reference compound], for which, in series [1] (80% plasma), the half-life was more than 3000 min.
For `CCN(C)C(=O)COC(=O)c1ccccc1` [Example 9], the half-life in series [1] (50% plasma) was 0.1 min.
As for `C=CCN(CC=C)C(=O)COC(=O)c1ccccc1` [Example 13], the “log P” value turned out to be 2.34. For the same compound, the “S, solubility in water” value in series [3] was 710 µg/mL. Besides, the half-life in series [1] (50% plasma) was found to be 0.08 min.
For the compound `CCCCN(CCCC)C(=O)COC(=O)c1ccccc1` [Example 14], in series [3], the “S, solubility in water” value amounted to 80 µg/mL.
For `CC(C)CN(CC(C)C)C(=O)COC(=O)c1ccccc1` [Example 15], the half-life in series [1] (50% plasma) is less than 1.5 min. This compound displayed a solubility in series [2] of 81 µg/mL (≈ 0.278 mM).
With `O=C(OCC(=O)N(CCO)CCO)c1ccccc1` [Example 17, 2-(benzoyloxy)-N-N-(di-β-hydroxyethyl)acetamide], in series [3], the “S, solubility in water” value was 720000 µg/mL. In series [2], this compound displayed a solubility of more than 700000 µg/mL.
In the case of `O=C(OCC(=O)N(C1CCCCC1)C1CCCCC1)c1ccccc1` [Example 20], in series [1] (50% plasma), the half-life was found to be 407 min.
Same read-out and setting: the same measure for `CN(C)C(=O)CCOC(=O)c1ccccc1` [Example 21]: 5.6 min.
As to `CN(C)CCN(C)C(=O)COC(=O)c1ccccc1` [Example 23a], in series [1] (50% human plasma (pH 7.4) at 37° C.), the “t1/2, half-life of hydrolysis in 50% human plasma” value stood at 0.12 min. Further, in series [2], the solubility is more than 100000 µg/mL.
For the compound `COCCN(CCOC)C(=O)COC(=O)c1ccccc1` [Example 23b], the half-life in series [1] (50% plasma) was 0.25 min.
Take `CCN(CC)C(=O)COC(=O)[C@@H](C)c1ccc2cc(OC)ccc2c1` [Example 35, 2-[(+)-6-METHOXY-α-METHYL-2-NAPHTHALENEACETYLOXY]-N,N-[…]]: the “kinetics (order) of hydrolysis in human plasma” value (“kinetics (order) of hydrolysis” for short) in series [1] is reported as “first-order kinetics”.
As for `CN(CC(N)=O)C(=O)COC(=O)c1ccccc1O` [Example 37, 2-[2-HYDROXYBENZOYLOXY]-(N-METHYL-N-CARBAMOYLMETHYL)-ACETAMIDE], the half-life in series [1] (plasma) stood at 0.33 min.
`Br.CCN(CC)C(=O)COC(=O)[C@@H](N)Cc1ccccc1` [Example 38]: the “kinetics (order) of hydrolysis” value in series [1] is listed as “first-order kinetics”.
`CC(C)Cc1ccc(C(C)C(=O)OCC(=O)N(C)CC(N)=O)cc1` (stereo not drawn) [Example 41, 2-[α-METHYL-4-(2-METHYLPROPYL)BENZENEACETYLOXY]-(N-METHYL-N-CARBAMOYLMETHYL)ACETAMIDE]: the half-life in series [1] (plasma) was found to be 9.6 min.
Take `COc1ccc2cc([C@H](C)C(=O)OCC(=O)N(CCO)CCO)ccc2c1` [Example 44, 2-[(+)-6-METHOXY-α-METHYL-2-NAPHTHALENEACETYLOXY]-N,N-(DI-β-HYDROXYETHYL)ACETAMIDE]: the “solubility in 0.01M HCl relative to parent naproxen” value in series [2] (0.01M HCl, versus naproxen) is “more than 20 -fold”. Besides, in series [4], the “absorption following oral administration” value is reported as “efficiently absorbed” and the “conversion of prodrug to naproxen in vivo” value is “rapidly converted back to naproxen in vivo”. Moreover, the “plasma concentration of intact naproxen prodrug” value in series [4] (equivalent of 4.8 mg/kg naproxen) is less than 100 ng/mL.
For the compound `CC(C)Cc1ccc(C(C)C(=O)OCC(=O)N(C)CC(=O)NCN2CCOCC2)cc1` (stereo not drawn) [Example 51, 2-[α-METHYL-4-(2-METHYLPROPYL)BENZENEACETYLOXY]-(N-METHYL-N-(N'-MORPHOLINOMETHYLCARBAMOYL)METHYL)ACETAMIDE HYDROCHLORIDE], the half-life in series [1] (plasma) was found to be 10.8 min.
Still for that read-out and setting: with `COc1ccc2cc([C@H](C)C(=O)OCC(=O)N(C)C)ccc2c1` [Example 52] the figure was 1.5 min; with `COc1ccc2cc([C@H](C)C(=O)OCC(=O)N(C)CC(N)=O)ccc2c1` [Example 53], 2.5 min.
Still for that read-out and setting: with `CC(C)Cc1ccc(C(C)C(=O)OCC(=O)N(C)C)cc1` (stereo not shown) [Example 54] the figure was 8.6 min; with `CC(C(=O)OCC(=O)N(C)C)c1cccc(C(=O)c2ccccc2)c1` (stereo not shown) [Example 55], 1.1 min.
With `CCN(CC)C(=O)COC(=O)C(C)c1cccc(C(=O)c2ccccc2)c1` (stereo not shown) [Example 56], the half-life in series [1] (80% plasma) and in series [1] (plasma) was 0.5 min in each case.
`CN(CC(N)=O)C(=O)COC(=O)Cc1ccc(-c2ccccc2)cc1` [Example 57]: the half-life in series [1] (plasma) was 2.1 min.
Still for that read-out and setting: with `CC(C(=O)OCC(=O)N(C)C)c1ccc(-c2ccccc2)c(F)c1` (stereo not shown) [Example 58] the figure was 10.8 min; with `CCN(CC)C(=O)COC(=O)C(C)c1ccc(-c2ccccc2)c(F)c1` (stereo not shown) [Example 59], 4.7 min; with `CN(C)C(=O)COC(=O)CCC(=O)c1ccc(-c2ccccc2)cc1` [Example 60], 9.2 min.
Turning to `CCN(CC)C(=O)COC(=O)CCC(=O)c1ccc(-c2ccccc2)cc1` [Example 61], the half-life in series [1] (80% plasma) and in series [1] (plasma) was 3.8 min in each case.
As to `COc1ccc2c(c1)c(CC(=O)OCC(=O)N(C)CCO)c(C)n2C(=O)c1ccc(Cl)cc1` [Example 63], the half-life in series [1] (plasma) came to 140 min.
On the same count and under the same terms, with `COc1ccc2c(c1)c(CC(=O)OCC(=O)N(CCO)CCO)c(C)n2C(=O)c1ccc(Cl)cc1` [Example 64] the figure was 88 min; with `Cc1c(Cl)cccc1Nc1ccccc1C(=O)OCC(=O)N(C)C` [Example 65], 2.8 min.
On to `CCN(CC)C(=O)COC(=O)c1ccccc1Nc1cccc(Cl)c1C` [Example 66], for which the half-life in series [1] (80% plasma) and in series [1] (plasma) was 5 min in each case.
With `CCN(CCO)C(=O)COC(=O)c1ccccc1Nc1cccc(Cl)c1C` [Example 67], the half-life in series [1] (plasma) came to 3 min.
For the compound `CCN(CC)C(=O)COC(=O)c1cc(-c2ccc(F)cc2F)ccc1O` [Example 70], in series [1] (plasma), the half-life came to 79 min.
The same measure, in the same setting: the same measure for `CCN(CC)C(=O)COC(=O)CC1=C(C)/C(=C/c2ccc([S+](C)[O-])cc2)c2ccc(F)cc21` (stereo not shown) [Example 73]: 26 min.
On the same count and under the same terms, with `CN(C)C(=O)COC(=O)c1ccccc1O` [Example 79] the figure was 0.08 min.
As for `CCN(CC)C(=O)COC(=O)c1ccccc1O` [Example 80], the half-life in series [1] (80% plasma) and in series [1] (plasma) was 0.08 min in each case.
With `COC(=O)CCC(=O)c1ccc(-c2ccccc2)cc1` [Fenbufen methyl ester, reference compound], the half-life in series [1] (80% plasma) is 282 min.
The same measure, in the same setting: with `COC(=O)Cc1c(C)n(C(=O)c2ccc(Cl)cc2)c2ccc(OC)cc12` [Indomethacin methyl ester, reference compound] the figure was 9000 min.
In the case of `CC(C(=O)OCC(=O)N(C)CC(N)=O)c1cccc(C(=O)c2ccccc2)c1` (stereo not shown) [Ketoprofen (R1=CH3, R2=CH2CONH2)], the “kinetics (order) of hydrolysis” value in series [1] is “first-order kinetics”. Moreover, the half-life in series [1] (plasma) stood at 2.3 min.
Take `CCOC(=O)[C@@H](N)Cc1ccc(O)cc1` [L-Tyrosine ethyl ester, reference compound]: in series [1] (80% plasma), the half-life was 59 min.
Take `CN(C)CC(=O)OCCN(C)C(=O)COC(=O)c1ccccc1` [R1=CH3, R2=CH2CH2OOCCH2N(CH3)2, n=1]: in series [1] (50% plasma), the half-life came to 0.08 min. The compound also yielded a solubility in series [2] of more than 200000 µg/mL.
On to `CN1CCN(C(=O)COC(=O)c2ccccc2O)CC1` [Salicylic acid], for which the half-life in series [1] (plasma) was determined as 22 min.
`COC(=O)c1ccccc1Nc1cccc(Cl)c1C` [Tolfenamic acid methyl ester, reference compound]: the half-life in series [1] (80% plasma) was 6000 min.
As to `CCN(CC)C(=O)COC(=O)Cc1ccc(C(=O)c2ccc(C)cc2)n1C` [Tolmetin (R1=C2H5, R2=C2H5)], the half-life in series [1] (80% plasma) and in series [1] (plasma) was 13.4 min each time.
Consider `COC(=O)Cc1ccc(C(=O)c2ccc(C)cc2)n1C` [Tolmetin methyl ester, reference compound], for which the half-life in series [1] (80% plasma) is 1140 min.
Still for that read-out and setting: the same measure for `COC(=O)[C@H]1CC[C@H](CN)CC1` [Tranexamic acid methyl ester, reference compound]: more than 180 min.

The record behind these values is patent publication US5073641A, “Prodrug derivatives of carboxylic acid drugs” (priority 1986, dated 1991).
